From ChEMBL document CHEMBL4024761, “Protac-Induced Protein Degradation in Drug Discovery: Breaking the Rules or Just Making New Ones?” (J Med Chem, 2018)

Assays:
[1] = target: von Hippel-Lindau disease tumor suppressor/Receptor-interacting serine/threonine-protein kinase 2 (Homo sapiens, UniProt O43353+P40337); assay: Proteolysis targeting chimera activity in human THP1 cells assessed as induction of VHL-mediated delivery of RIPK2 for protein degradation by proteasome by measuring drug level causing 50% cellular protein depletion incubated for 16 hrs by Western blotting method; assay type: cell-based
[2] = target: von Hippel-Lindau disease tumor suppressor (Homo sapiens, UniProt P40337); assay: Binding affinity to VHL (unknown origin) assessed as reduction of HIF1alpha derived peptide binding to VHL complex by competitive binding fluorescence polarization assay
Sequence of von Hippel-Lindau disease tumor suppressor (P40337 whole entry): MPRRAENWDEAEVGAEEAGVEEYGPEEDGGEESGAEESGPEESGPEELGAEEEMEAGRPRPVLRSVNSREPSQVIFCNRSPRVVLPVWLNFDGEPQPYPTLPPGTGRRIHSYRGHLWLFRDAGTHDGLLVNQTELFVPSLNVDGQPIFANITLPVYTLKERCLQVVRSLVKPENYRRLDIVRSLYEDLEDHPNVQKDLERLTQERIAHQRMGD

Sequence of von Hippel-Lindau disease tumor suppressor/Receptor-interacting serine/threonine-protein kinase 2 (O43353 whole entry): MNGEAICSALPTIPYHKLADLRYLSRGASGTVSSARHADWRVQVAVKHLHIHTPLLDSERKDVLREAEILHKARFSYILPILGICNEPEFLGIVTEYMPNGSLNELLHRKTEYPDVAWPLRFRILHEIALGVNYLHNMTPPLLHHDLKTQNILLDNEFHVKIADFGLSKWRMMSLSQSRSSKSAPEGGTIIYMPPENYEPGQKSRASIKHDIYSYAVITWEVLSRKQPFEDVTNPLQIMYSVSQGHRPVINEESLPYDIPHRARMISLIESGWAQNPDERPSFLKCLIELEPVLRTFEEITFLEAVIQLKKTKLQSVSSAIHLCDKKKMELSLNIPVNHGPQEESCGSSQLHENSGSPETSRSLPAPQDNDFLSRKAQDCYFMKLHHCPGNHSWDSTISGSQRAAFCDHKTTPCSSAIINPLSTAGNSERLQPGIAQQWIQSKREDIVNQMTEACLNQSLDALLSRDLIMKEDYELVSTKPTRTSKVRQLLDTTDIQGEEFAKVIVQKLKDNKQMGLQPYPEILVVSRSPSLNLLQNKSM
Sequence of von Hippel-Lindau disease tumor suppressor/Receptor-interacting serine/threonine-protein kinase 2 (P40337 whole entry): as the sequence (P40337 whole entry) above

DC50 [1]: 0.001 µM | Kd [2]: 0.5 µM
Structure (SMILES): Cc1ncsc1-c1ccc(CNC(=O)[C@@H]2C[C@@H](O)CN2C(=O)[C@@H](NC(=O)COCCOCCOCCOCCOc2cc3nccc(Nc4ccc5scnc5c4)c3cc2S(=O)(=O)C(C)(C)C)C(C)(C)C)cc1
